Like-named read-outs stand apart in the source and are kept apart here.
Experiments:
[1] = animal testing, in vivo; unpublished observations of Stinson, Narayanan and Sausville; adaphostin compared with AG957; cited from earlier work
p210^bcr/abl = conditions: immune complex kinase assays; cited from earlier work
K562 cells [2] = assay: Morphologic changes associated with apoptosis (Hoechst 33258 staining) in K562 cells; assay type: cell-based, human; conditions: 24 h
Method: For morphological analysis, cells are fixed in 3:1 (v:v) methanol:acetic acid, stained with 1 μg/ml Hoechst 33258 in 50% (v:v) glycerol and examined under epi-illumination using a Zeiss Axioplan microscope. Two hundred to 300 cells/sample are scored for apoptotic changes (peripheral chromatin condensed or nuclear fragmentation) as described in Svingen et al., Clin. Cancer Res. 6, 237-49 (2000).
Under (c) in Table (A), K562 cells are incubated with the concentration indicated in the subsequent table in the presence of diluent or 10 μmol/l STI 571, fixed, and examined for apoptotic morphological changes.

CML CFU-G = assay: Granulocyte colony formation of circulating mononuclear cells from CML patients (CFU-G / CFU-GM); assay type: cell-based, human; conditions: for Number of colonies (% of control): (d) Pt. #30 CFU-GM, 24 h; for IC50: Homo sapiens, CFU-GM, linear regression
Method: Clinical samples are studied under the aegis of a protocol approved by the Institutional Review Board of the Mayo Clinic in accordance with the policies of the US Department of Health and Human Services. […] CML CFU-G, 10 mL of peripheral blood is drawn from normal volunteers and consenting patients with previously untreated chronic phase CML using EDTA as an anticoagulant. […] At the completion of the incubation, samples are sedimented at 200×g for 10 min, resuspended at a concentration of 1×10^6/ml in medium C containing 50 ng/mL G-CSF, plated in 0.3% agar, and incubated for 7-8 d. Colonies containing […] are counted on an inverted phase contrast microscope.

K562 cells [3] = assay: Clonogenic assay (colony formation in 0.3% agar) of K562 cells; assay type: cell-based, human; conditions: 24 h
Method: At the completion of the incubation, cells are washed, plated in 0.3% agar and incubated for 10-14 days before colony formation is assessed. For results see under (a) in Table (A). […] At the completion of the incubation, colony formation ability is assessed as described in the last paragraph.

[4] = compared with AG957; Svingen et al.; cited from earlier work

## COC(=O)c1ccc(NCc2cc(O)ccc2O)cc1 [AG957]
[1]
  serum half-life: very short
p210^bcr/abl
  p210^bcr/abl activity: inhibit

## O=C(OC12CC3CC(CC(C3)C1)C2)c1ccc(NCc2cc(O)ccc2O)cc1 [Adaphostin, 4-{[(2,5-dihydroxyphenyl)methyl]amino}-benzoic acid adamantyl ester]
[1]
  serum half-life: longer
K562 cells [2]; (c) adaphostin 0.62 μmol/l without STI571
  Apoptosis (% of total cells): 2.1 % of total cells
K562 cells [2]; (c) adaphostin 1.25 μmol/l without STI571
  Apoptosis (% of total cells): 10.9 % of total cells
K562 cells [2]; (c) adaphostin 2.50 μmol/l without STI571
  Apoptosis (% of total cells): 41.8 % of total cells
K562 cells [2]; (c) adaphostin 3.75 μmol/l without STI571
  Apoptosis (% of total cells): 62.8 % of total cells
K562 cells [2]; (c) adaphostin 5.00 μmol/l without STI571
  Apoptosis (% of total cells): 84.1 % of total cells
CML CFU-G; adaphostin 3.2 μmol/l without STI571
  Number of colonies (% of control): 93 ± 1.9 % of control
CML CFU-G; adaphostin 6.4 μmol/l without STI571
  Number of colonies (% of control): 71 ± 2.2 % of control
CML CFU-G; adaphostin 12.7 μmol/l without STI571
  Number of colonies (% of control): 55 ± 2.5 % of control
CML CFU-G; adaphostin 15.9 μmol/l without STI571
  Number of colonies (% of control): 40 ± 1.2 % of control
CML CFU-G; adaphostin 19.1 μmol/l without STI571
  Number of colonies (% of control): 18 ± 0.7 % of control
CML CFU-G; read-out: IC50 for Adaphostin in presence of 20 μmol/l STI571, CFU-GM, patient number 28
  IC50: 5 µM
CML CFU-G; read-out: IC50 for Adaphostin in presence of 20 μmol/l STI571, CFU-GM, patient number 29
  IC50: 14 µM
CML CFU-G; read-out: IC50 for Adaphostin in presence of 20 μmol/l STI571, CFU-GM, patient number 30
  IC50: 8.5 µM
CML CFU-G; read-out: IC50 for Adaphostin in presence of 20 μmol/l STI571, CFU-GM, patient number 31
  IC50: 10 µM
CML CFU-G; read-out: IC50 for Adaphostin in presence of 20 μmol/l STI571, CFU-GM, patient number 33
  IC50: 16 µM
CML CFU-G; read-out: IC50 for Adaphostin in presence of 20 μmol/l STI571, CFU-GM, patient number 34
  IC50: 3.5 µM
CML CFU-G; read-out: IC50 for Adaphostin without STI571, CFU-GM, patient number 28
  IC50: 13 µM
CML CFU-G; read-out: IC50 for Adaphostin without STI571, CFU-GM, patient number 29
  IC50: > 20 µM
CML CFU-G; read-out: IC50 for Adaphostin without STI571, CFU-GM, patient number 30
  IC50: 13.5 µM
CML CFU-G; read-out: IC50 for Adaphostin without STI571, CFU-GM, patient number 31
  IC50: 8.5 µM
CML CFU-G; read-out: IC50 for Adaphostin without STI571, CFU-GM, patient number 33
  IC50: 23 µM
CML CFU-G; read-out: IC50 for Adaphostin without STI571, CFU-GM, patient number 34
  IC50: 11 µM
K562 cells [3]; (a) adaphostin 2.5 μmol/l without STI571
  Number of colonies (% of control): 56 ± 4 % of control
K562 cells [3]; (a) adaphostin 5.1 μmol/l without STI571
  Number of colonies (% of control): 46 ± 4 % of control
K562 cells [3]; (a) adaphostin 7.7 μmol/l without STI571
  Number of colonies (% of control): 27 ± 4 % of control
K562 cells [3]; (a) adaphostin 10.2 μmol/l without STI571
  Number of colonies (% of control): 10 ± 1 % of control
K562 cells [3]; (b) adaphostin 5.2 μmol/l, STI571 0
  Number of colonies (% of control): 35 ± 3 % of control
[4]
  potency in vitro: higher

## Cc1ccc(NC(=O)c2ccc(CN3CCN(C)CC3)cc2)cc1Nc1nccc(-c2cccnc2)n1 [STI571, N-{5-[4-(4-methyl-piperazino-methyl)-benzoylamido]-2-methylphenyl}-4-(3-pyridyl)-2-pyrimidine-amine]
K562 cells [2]; (c) STI571 10 μmol/l, adaphostin 0
  Apoptosis (% of total cells): 12.9 % of total cells
